Source: the supplement of paper PMC11061612

Assays:
A375 (Melanoma) [1] = test: combination Emax (second highest fraction inhibited in the dose matrix, 72 h); higher = more inhibition; extreme values may be limits of the assay
In short: (§1)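 Cell lines in DMEM/F12 or RPMI with 10% FBS were plated in 1536-well plates, held 24 hours at 37°C, 5% CO2, then given two-drug dose matrices for 72 hours (DMSO typically 0.2%). Viability was read by CellTiter-Glo 2.0 luminescence and scaled as inhibition from 0 (vehicle wells) to 1 (blank wells). Combination Emax is the second-highest inhibition in the matrix; Bliss excess is observed combination effect minus expected EA + EB − EA·EB, EA and EB being single-agent effects.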

C32 (Melanoma) [2] = test: as above
In short: as §1

[3] = tested on: NCI-H2009 (Lung Adenocarcinoma); test: as above
In short: as §1

[4] = tested on: RPMI-8402 (T-Lymphoblastic Leukemia); test: as above
In short: as §1

MG-63 (Osteosarcoma) = test: as above
In short: as §1

A375 (Melanoma) [5] = test: Bliss excess, mean over the matrix (fraction); higher = more synergy
In short: as §1

C32 (Melanoma) [6] = test: as above
In short: as §1

[7] = tested on: NCI-H2023 (Non-Small Cell Lung Carcinoma); test: as above
In short: as §1

[8] = tested on: BC-1 (B-Cell Non-Hodgkin's Lymphoma); test: as above
In short: as §1

[9] = tested on: NCI-H1435 (Non-Small Cell Lung Carcinoma); test: as above
In short: as §1

[10] = tested on: KNS-62 (Squamous Cell Lung Carcinoma); test: as above
In short: as §1
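Throughout, for Bliss excess, mean over the matrix: after 72 h of two-drug dosing.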

| Structure (SMILES) | combination Emax (A375 (Melanoma) [1]) | combination Emax (C32 (Melanoma) [2]) | combination Emax [3] | combination Emax [4] | combination Emax (MG-63 (Osteosarcoma)) | Bliss excess (A375 (Melanoma) [5]) | Bliss excess (C32 (Melanoma) [6]) | Bliss excess [7] | Bliss excess [8] | Bliss excess [9] | Bliss excess [10] |
| --- | --- | --- | --- | --- | --- | --- | --- | --- | --- | --- | --- |
| Cc1nc(-c2cn3c(n2)-c2ccc(-c4cnn(C(C)(C)C(N)=O)c4)cc2OCC3)n(C(C)C)n1 [Taselisib] + O=C(Nc1ccc2[nH]nc(-c3ccncc3)c2c1)[C@@H]1CCN(CC(=O)N2CCN(c3ccc(-c4ncccn4)cc3)CC2)C1 [SCH772984] (first compound max 10 µM, 7x7, partner max 5 µM) | 0.918 | 1 | 0.919 | 0.898 | 0.746 | 0.133 | 0.0706 | -0.0437 | 0.139 | 0.0352 | 0.0108 |
| CN(CCO)CC[C@H](CSc1ccccc1)Nc1ccc(S(=O)(=O)NC(=O)c2ccc(N3CCC([C@@H](O)c4ccccc4-c4ccc(Cl)cc4)CC3)cc2)cc1S(=O)(=O)C(F)(F)F [AZD4320] + CS(=O)(=O)CCNCc1ccc(-c2ccc3ncnc(Nc4ccc(OCc5cccc(F)c5)c(Cl)c4)c3c2)o1 [Lapatinib] (first compound max 1 µM, 7x7, partner max 10 µM) | 0.413 | 0.344 | 0.349 | 0.988 | 0.596 | 0.0275 | -0.0269 | 0.0132 | 0.0372 | 0.0765 | -0.0185 |
| CS(=O)(=O)CCNCc1ccc(-c2ccc3ncnc(Nc4ccc(OCc5cccc(F)c5)c(Cl)c4)c3c2)o1 [Lapatinib] + Cn1cnc2c(F)c(Nc3ccc(Br)cc3Cl)c(C(=O)NOCCO)cc21 [Selumetinib] (first compound max 10 µM, 7x7, partner max 10 µM) | 0.736 | 0.935 | 0.53 | 0.924 | 0.453 | -0.0348 | -0.0418 | -0.0391 | 0.0547 | 0.0172 | 0.0708 |
| Cc1c2c(nn1C)CSCc1cc(n(C)n1)CSc1cc(c3ccccc3c1)OCCCc1c(C(=O)O)n(C)c3c-2c(Cl)ccc13 [AZD5991] + CS(=O)(=O)CCNCc1ccc(-c2ccc3ncnc(Nc4ccc(OCc5cccc(F)c5)c(Cl)c4)c3c2)o1 [Lapatinib] (first compound max 1 µM, 7x7, partner max 10 µM) | 0.318 | 0.228 | 0.237 | 0.955 | 0.157 | 0.0109 | -0.0014 | 0.0021 | 0.0211 | -0.0063 | -0.0155 |
| C=CCn1c(=O)c2cnc(Nc3ccc(N4CCN(C)CC4)cc3)nc2n1-c1cccc(C(C)(C)O)n1 [AZD1775] + CCc1c2c(nc3ccc(O)cc13)-c1cc3c(c(=O)n1C2)COC(=O)[C@]3(O)CC [SN-38] (first compound max 1 µM, partner max 0.3 µM) | 0.925 | 0.69 | 0.936 | 1 | 0.968 | -0.0409 | -0.0375 | -0.0478 | -0.0252 | 0.0158 | -0.0374 |
| C[C@@H](Nc1cc(F)cc(F)c1)c1cc(C(=O)N(C)C)cc2c(=O)cc(N3CCOCC3)oc12 [AZD8186] + CC(=O)c1c(C)c2cnc(Nc3ccc(N4CCNCC4)cn3)nc2n(C2CCCC2)c1=O [Palbociclib] (first compound max 10 µM, 7x7, partner max 10 µM) | 0.42 | 0.342 | 0.256 | 0.9 | 0.633 | 0.0781 | 0.04 | 0.0108 | 0.0867 | 0.0802 | -0.0035 |
| C[C@@H](Nc1cc(F)cc(F)c1)c1cc(C(=O)N(C)C)cc2c(=O)cc(N3CCOCC3)oc12 [AZD8186] + C1CN(CCC1(C(=O)N[C@@H](CCO)C2=CC=C(C=C2)Cl)N)C3=NC=NC4=C3C=CN4 [AZD5363] (first compound max 10 µM, 7x7, partner max 10 µM) | 0.232 | 0.436 | 0.26 | 0.588 | 0.694 | 0.011 | -0.0235 | -0.0589 | 0.0374 | 0.0283 | -0.0302 |
| O=C(c1cc(Cc2n[nH]c(=O)c3ccccc23)ccc1F)N1CCN(C(=O)C2CC2)CC1 [Olaparib] + Cc1c2c(nn1C)CSCc1cc(n(C)n1)CSc1cc(c3ccccc3c1)OCCCc1c(C(=O)O)n(C)c3c-2c(Cl)ccc13 [AZD5991] (first compound max 10 µM, 7x7, partner max 1 µM) | 0.163 | 0.0885 | 0.107 | 0.857 | 0.216 | -0.0264 | -0.0585 | -0.0502 | 0.0737 | -0.0055 | -0.0396 |
| Cc1c2c(nn1C)CSCc1cc(n(C)n1)CSc1cc(c3ccccc3c1)OCCCc1c(C(=O)O)n(C)c3c-2c(Cl)ccc13 [AZD5991] + Nc1ccn([C@@H]2O[C@H](CO)[C@@H](O)C2(F)F)c(=O)n1 [Gemcitabine] (first compound max 1 µM, 7x7, partner max 0.3 µM) | 0.961 | 0.762 | 0.487 | 1 | 0.82 | 0.0115 | -0.0117 | -0.0707 | 0.033 | -0.0706 | -0.009 |
| O=C(c1cc(Cc2n[nH]c(=O)c3ccccc23)ccc1F)N1CCN(C(=O)C2CC2)CC1 [Olaparib] + CN(CC[C@H](CSC1=CC=CC=C1)NC2=C(C=C(C=C2)S(=O)(=O)NC(=O)C3=CC=C(C=C3)N4CCC(CC4)[C@H](C5=CC=CC=C5C6=CC=C(C=C6)Cl)O)S(=O)(=O)C(F)(F)F)CCO [AZD4320] (first compound max 10 µM, 7x7, partner max 1 µM) | 0.24 | 0.253 | 0.112 | 0.935 | 0.332 | -0.0091 | -0.0529 | -0.041 | 0.061 | -0.0086 | -0.0436 |
| Cc1c2c(nn1C)CSCc1cc(n(C)n1)CSc1cc(c3ccccc3c1)OCCCc1c(C(=O)O)n(C)c3c-2c(Cl)ccc13 [AZD5991] + CC(=O)O[C@H]1C(=O)[C@@]2(C)[C@H]([C@H](OC(=O)c3ccccc3)[C@]3(O)C[C@H](OC(=O)[C@H](O)[C@@H](NC(=O)c4ccccc4)c4ccccc4)C(C)=C1C3(C)C)[C@]1(OC(C)=O)CO[C@@H]1C[C@@H]2O [Paclitaxel] (first compound max 1 µM, 7x7, partner max 3 µM) | 0.787 | 0.654 | 0.715 | 1 | 0.88 | -0.0149 | 0.0017 | 0.0058 | -0.0329 | 0.0254 | -0.0159 |
| C[C@@H](Oc1cc(-c2cnn(C3CCNCC3)c2)cnc1N)c1c(Cl)ccc(F)c1Cl [Crizotinib] + CC1=C(C(=CC=C1)Cl)NC(=O)C2=CN=C(S2)NC3=CC(=NC(=N3)C)N4CCN(CC4)CCO [Dasatinib] (first compound max 10 µM, 7x7, partner max 2 µM) | 0.502 | 0.425 | 0.88 | 0.971 | 0.949 | -0.0256 | -0.0461 | -0.012 | 0.0312 | 0.0039 | -0.0258 |
| O=C(c1cc(Cc2n[nH]c(=O)c3ccccc23)ccc1F)N1CCN(C(=O)C2CC2)CC1 [Olaparib] + COc1nnc2ccc(N3CCC(c4ccc(OCCN5CCN(C)C(=O)[C@H]5C)cc4)CC3)nn12 [AZD5153] (first compound max 10 µM, 7x7, partner max 1 µM) | 0.425 | 0.22 | 0.374 | 0.9 | 0.717 | -0.0229 | -0.0595 | -0.0624 | -0.0048 | -0.022 | -0.0631 |
| C[C@@H]1COCCN1c1cc(C2([S@](C)(=N)=O)CC2)nc(-c2ccnc3[nH]ccc23)n1 [AZD6738] + Nc1ccn([C@@H]2O[C@H](CO)[C@@H](O)C2(F)F)c(=O)n1 [Gemcitabine] (first compound max 10 µM, 7x7, partner max 0.3 µM) | 0.991 | 0.703 | 0.789 | 1 | 1 | 0.0602 | -0.0247 | 0.0123 | 0.0099 | 0.0799 | 0.0023 |
| O=C(c1cc(Cc2n[nH]c(=O)c3ccccc23)ccc1F)N1CCN(C(=O)C2CC2)CC1 [Olaparib] + CC1(C)CCC(CN2CCN(c3ccc(C(=O)NS(=O)(=O)c4ccc(NCC5CCOCC5)c([N+](=O)[O-])c4)c(Oc4cnc5[nH]ccc5c4)c3)CC2)=C(c2ccc(Cl)cc2)C1 [Venetoclax] (first compound max 10 µM, 7x7, partner max 1 µM) | 0.176 | 0.145 | 0.174 | 0.53 | 0.299 | -0.0248 | -0.0521 | -0.0292 | 0.0012 | -0.01 | -0.0346 |
